Test results as given in patent US20240058316A1, “PRODRUG OF A PHENOLIC TRPV1 AGONIST FOR THE TREATMENT OF PAIN” (Concentric Analgesics, Inc., priority 2020, published 2024).

Experiments:
[1] = background statement; cited from earlier work
[2] = test system: pain in subjects undergoing surgery to repair a ventral hernia; assay: Randomized, double-blind, placebo-controlled study in subjects undergoing ventral hernia repair (laparotomy); format: in vivo, human
Method: Using the general delivery technique identified in Part A, this dose, concentration and volume will be assessed compared to a placebo in a pilot, double-blind, randomized, parallel-group design (see Figure). […] Study treatment was administered intraoperatively as a single administration via infiltration/instillation into the “surgical site” prior to wound closure. In general, the intent was to deliver local anesthetic into the surgical site “on the way in” (upon adequate exposure of and prior to incision/dissection of target tissues). […] The “surgical site” is defined as the area extending approximately at least 2-3 cm in all directions (lateral/medial/proximal/distal/deep) from the margins of substantially all tissue traumatized by the surgical procedure, i.e., all tissue dissected, cut, electrocauterized (bovied), sutured or tacked, including both deep and superficial areas. The surgical site include sthe full area of surgical mesh placement. […] The surgery was performed under general anesthesia with the following guidelines: • Inhaled anesthetic or propofol infusion with or without nitrous oxide (N20). • Adequate optional premedication typically with midazolam (up to 5 mg), fentanyl (up to 100 mcg), more can be given if indicated • Supplemental anesthesia and sedation will be per institutional guidelines Intra-operative titration of intravenous (IV) fentanyl, including during emergence, will be per institutional guidelines. In addition, patients received bupivacaine hydrochloride (BupiHCl) 175 mg delivered as follows: • Prior to start of surgery under ultrasound guidance: • BupiHCl 0.25%, 30 mL (75 mg) diluted with 10 mL of normal saline to a volume of 40 mL delivered as a rectus block with 20 mL on each side. • Immediately before/after surgical incision: • BupiHCl 0.25%, 40 mL (100 mg), may be diluted in up to 110 mL of normal saline to a total volume of not more than 150 mL: Infiltration of abdominal wall, anterior rectus abdominis sheath, posterior rectus abdominis sheath, other fascia, peritoneum (including circumferential areas of intended mesh placement) Standard supplemental anesthetic and perioperative care was provided per institutional guidelines. This typically included (but not be limited to) steps to ensure preservation of intraoperative normothermia (including the use of preoperative and intraoperative forced-air warming) and deep venous thrombosis prophylaxis. Patients received general anesthesia and bilateral rectus blocks. […]

[3] = test system: pain following TKA surgery; assay: Phase 1/2 randomized, double-blind, placebo-controlled study in patients undergoing total knee arthroplasty (TKA); format: in vivo, human
Method: • This is a two-part, Phase 1/2, randomized, double-blind, placebo-controlled study. In Part A, 2 or more exploratory sequential dose-escalation cohorts will be evaluated, each with administration of a single dose of Compound 1 or placebo infiltrated/instilled during surgery in patients undergoing TKA (FIG. 5).
• 1. Cohort #1: total N=8 patients randomized 3:1 Compound 1 36 mg in 120 mL (0.3 mg/mL) or placebo 120 mL • 2. Cohort #2: total N=8 patients randomized 3:1 Compound 1 60 mg in 120 mL (0.5 mg/mL) or placebo 120 mL • 3. Cohort #2: total N=8 patients randomized 3:1 Compound 1 90 mg in 120 mL (0.75 mg/mL) or placebo 120 mL
• 1. Cohort #1: total N=˜97 patients randomized 2:1 Compound 1 36 mg in 120 mL (0.3 mg/mL) or placebo 120 mL • 2. Cohort #2: total N=˜97 patients randomized 2:1 Compound 1 60 mg in 120 mL (0.5 mg/mL) or placebo 120 mL
Subjects underwent unilateral total knee arthroplasty (replacement) (TKA). […]
Following surgery, patients were transferred to the PACU where they underwent an assessment of safety and efficacy over the next 96 (±4) hours. T0 is the time of admission into the PACU (as recorded in notes by the PACU nurse). The schedule of assessments was as follows: • Patients with inadequately controlled pain may request rescue at any time during T0 to D5; however, patients will be encouraged to receive rescue medication only with an NRS ≥4. • Pain intensity (assessed with NRS). • During the inpatient stay, NRS at rest beginning with the PACU admission was able to be assessed once the patient is awake. […] Scheduled NRS scores must be recorded regardless of timing of pre-rescue medication NRS scores and administration of rescue medication. The actual time of all NRS scores must be recorded, i.e., not the nominal time. • During the inpatient stay, evoked NRS twice daily after physical therapy (most preferred) or ambulation for approximately 10 yards (preferred) or transfers to/from bed or wheelchair. […]

[4] = Aqueous solubility (descriptive statement); format: physicochemical
[5] = test system: postoperative pain after a bunionectomy; assay: Phase 2 randomized, double-blind, placebo-controlled study in subjects undergoing bunionectomy; format: in vivo, human; settings: for reduction in opioid consumption: FIG. 3
Method: Compound 1 was investigated as a potential therapy for treatment of pain following bunionectomy. Compound 1 was administered (injected and instilled) directly into the postoperative wound during the surgery. This study is a follow-on placebo-controlled efficacy and safety study which includes assessments of wound healing and a PK study in enrolled subjects.
• This trial was designed to determine the efficacy of study treatment (Compound 1 vs. placebo) infiltrated/instilled during surgery in treating postoperative pain after a bunionectomy in the setting of multimodal analgesia in addition to a Mayo block with bupivacaine in the first 24 h (FIG. 1).
Protocol: This Phase 2, multi-center, randomized, double-blind, placebo-controlled, parallel design study evaluated a single dose of one of three Compound 1 dose groups vs. placebo injected during an elective BUNX with a multimodal analgesia regimen including an NSAID and regional Mayo block with bupivacaine. The study was conducted in two parts: • Inpatient period which continued to 96h after completion of study treatment injection (TO) or T96h. • Outpatient period which began on discharge from the inpatient unit through various follow visits to D29±2 (W4) after surgery, or if necessary for ongoing safety assessments, to D36±2 (W5).
Subjects underwent unilateral transpositional first metatarsal osteotomy for the correction of hallux valgus deformity (bunionectomy or BUNX). The surgery was performed under light to moderate sedation anesthesia (what constitutes this level of sedation and the additional anesthetic medications used per discretion of the anesthesiologist). In accordance with standard of care, light to moderate sedation was supplemented with a Mayo block to produce surgical anesthesia and postoperative analgesia. After administering light to moderate sedation, but prior to surgery, performed a Mayo block by infiltrating 0.5% bupivacaine hydrochloride (up to 30 mL total volume, 150 mg) at least 3 cm proximal to the “surgical site”. The Mayo block was performed at 15-30 minutes prior to study treatment dosing. “Surgical site” is defined as the area extending approximately 2-3 cm in all directions (lateral/medial/proximal/distal) from the incision site and surrounding tissues which may be affected by the infiltration of study treatment.
After the surgery, subjects were monitored for 96 hours in an inpatient unit. Safety and efficacy evaluations were performed. […] Subjects were required to meet certain pre-specified criteria prior to discharge.
T0 is the time that the study treatment injection/instillation is completed.
Following surgery, subjects were transferred to the appropriate recovery unit where they underwent various assessments over the next 96 hours (end of surgery [EOS] to T96h). In addition to the Mayo block noted above, a multimodal analgesia regimen included the following during the immediate postoperative period: • Ketorolac 30 mg IV (a non-steroidal anti-inflammatory drug (NSAID) to be administered intraoperatively before the end of surgery. Per investigator discretion, adjust the dose as necessary for subject age and medical condition. • Acetaminophen 1000 mg IV to be administered intraoperatively before the end of surgery.
After the non-opioid analgesics noted above has been administered, no additional NSAIDs or acetaminophen were administered during the inpatient phase of the study (through T96h). Additionally, the following rescue medication was able to be administered for any moderate to severe breakthrough pain during the inpatient period: • PO oxycodone 5 mg prn q2h in the first 12 hours after surgery for moderate or severe pain (≥4) as reported by subjects using the 0 to 10 numerical rating scale of current pain intensity (NRS). • PO oxycodone 5 mg prn q4h from 12 to 96 hours after surgery for moderate or severe pain (NRS≥4).
After surgery, subjects were monitored for 96 hours (through T96h) at the trial site as an inpatient.

[6] = bunionectomy, 4.2 mg (0.3 mg/mL)

SMILES | solubility in aqueous media or local anesthetic solutions [1] | reductions in pain ([2]; 36 mg (0.3 mg/mL)) | reduction in pain at rest compared to placebo ([2]; 36 mg (0.3 mg/mL), FIG. 9) [%] | reduction in pain with coughing compared to placebo ([2]; 36 mg (0.3 mg/mL), FIG. 9) [%] | reduction in opioid consumption compared to placebo ([2]; FIG. 9) [%] | reductions in pain ([3]; 36 mg (0.3 mg/mL), FIG. 7) | reduction in opioid consumption ([3]; 36 mg (0.3 mg/mL), FIG. 8) | analgesic activity ([3]; 60 mg (0.5 mg/mL), compared with 36 mg) | water solubility [4] | pain reduction ([5]; bunionectomy, 0.15 mg/mL (2.1 mg), FIG. 2) | reduction in opioid consumption ([5]; bunionectomy, 2.1 mg (0.15 mg/mL)) | reduction in pain [5, 6] | reduction in opioid consumption [5, 6] | persistence of analgesic effect ([5]; bunionectomy, 4.2 mg, FIG. 4) [days] | dose of maximum analgesic effect ([5]; bunionectomy, concentration of 0.3 mg/mL) [mg] | reductions of pain and opioid consumption ([5]; single administration during surgery, bunionectomy patients)
COc1cc(CNC(=O)CCCC/C=C/C(C)C)ccc1O [Capsaicin] | virtually insoluble | – | – | – | – | – | – | – | – | – | – | – | – | – | – | –
CNCC1CCCCN1C(=O)Oc1ccc(CNC(=O)CCCC/C=C/C(C)C)cc1OC (stereo not shown) [Compound 1, (E)-2-methoxy-4-((8-methylnon-6-enamido)methyl)phenyl 2-((methylamino)methyl)piperidine-1-carboxylate] | – | long lasting reductions in pain | 21 | 46 | 26 | long lasting reductions in pain | significant reduction in opioid consumption | lower analgesic activity which was of a shorter duration | highly water-soluble | trend in pain reduction | statistically significant reduction in opioid consumption | statistically significant reduction in pain | statistically significant reduction in opioid consumption | ≥ 15 | 4.2 | long lasting reductions of pain and opioid consumption
